Tests used:
human rec ACSS2 = target: T1, human rec ACSS2 (Homo sapiens, UniProt Q9NR19); experiment: Biochemical activity ACSS2 assay (AMP-Glo); conditions: human recombinant ACSS2, AMP-Glo, 180 min at 37° C.
T1 construct: myc (C); purchased Origene
Procedure: The biochemical activity assay for ACSS2 is based on the detection of released AMP by AMP-Glo ™ Assay kit (Promega, Madison). The assay is run in three steps: the enzymatic reaction in which human rec ACSS2 activates acetate with ATP and Coenzyme A as cosubstrates to acetyI-coA thereby releasing AMP and the detection reaction of AMP by AMP Glo assay in which after the destruction of the residual ATP with AMP Glo reagent 1 produced AMP is converted to ATP that is measured in a luciferase assay system (detection reagent). The ACSS2 activity correlates with the detected luminescence signal.
The assay was performed in Perkin Elmer 384well white Proxiplates in a total volume of 8 µl.
1 nM (fc) C-term myc tagged ACSS2 (human, recombinant, Origene, Rockville, US) and a mixture of 100 µM (fc) ATP, 100 µM (fc) Coenzyme A and 500 µM (fc) sodium acetate were incubated in a total volume of 5 µl (50 mM Hepes, 1 mM Mg-chloride, 150 mM NaCl, 1 mM DTT, 0.01 % (w/v) BSA, 0.3 % DMSO, pH 7.5) in the absence or presence of the test compound (10 dilution concentrations, start conc 30 µM) for 180 min at 37° C. The reaction was stopped and residual ATP destroyed by the addition of 1 µl AMP Glo reagent solution (Promega, Madison, US). After 1 h incubation at room temperature 2 µl of AMP Glo detection reagent was added and the assay was incubated for 0.75 hr at room temperature. The luminescence signal was measured with an Envision multimode reader (Perkin Elmer LAS Germany GmbH) at 700 nm in luminescence mode. The full value used was the inhibitor-free reaction. The pharmacological zero value was generated by addition of ACSS2 inhibitor (Ac-CoA Synthase Inhibitor - CAS 508186-14-9 -Calbiochem) in a final concentration of 5 µM. The inhibitory values (IC50) were determined using the program Assay Analyzer® from GeneData.

ACSS2 = target: T2, ACSS2 (Homo sapiens, UniProt Q9NR19); experiment: Cellular assay of 14C acetate incorporation into histones (IC50 ACSS2 cellular histone); format: cell-based; conditions: HCT-15 cells
T2 construct: endogenous fatty acid synthesis activity in the human HCT-15 cancer cell line; endogenous in cells; host or cells: HCT-15
T2 sequence (Q9NR19 whole entry): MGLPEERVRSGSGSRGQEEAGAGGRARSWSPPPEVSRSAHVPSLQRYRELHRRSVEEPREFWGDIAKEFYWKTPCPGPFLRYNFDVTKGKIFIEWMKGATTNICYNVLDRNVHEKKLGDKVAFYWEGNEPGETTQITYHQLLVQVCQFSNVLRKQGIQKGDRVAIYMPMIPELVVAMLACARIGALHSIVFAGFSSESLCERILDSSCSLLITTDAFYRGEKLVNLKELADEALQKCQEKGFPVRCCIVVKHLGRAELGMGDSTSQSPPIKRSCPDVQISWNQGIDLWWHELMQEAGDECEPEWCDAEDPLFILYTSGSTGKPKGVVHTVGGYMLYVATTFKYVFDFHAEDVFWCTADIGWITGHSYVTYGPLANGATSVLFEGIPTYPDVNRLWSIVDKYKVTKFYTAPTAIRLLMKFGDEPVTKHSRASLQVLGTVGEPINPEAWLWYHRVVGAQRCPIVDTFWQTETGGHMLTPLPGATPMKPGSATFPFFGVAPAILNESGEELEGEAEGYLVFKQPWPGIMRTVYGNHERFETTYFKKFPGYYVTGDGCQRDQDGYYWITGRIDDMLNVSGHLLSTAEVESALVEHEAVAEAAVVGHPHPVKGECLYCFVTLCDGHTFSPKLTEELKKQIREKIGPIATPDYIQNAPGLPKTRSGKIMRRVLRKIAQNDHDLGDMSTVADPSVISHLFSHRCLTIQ
Procedure: This protocol describes a cellular assay capable to quantify endogenous histone acetylation activity in the human HCT-15 cancer cell line following the incorporation of extracellularly administered radiolabeled ^14C acetate with a scintillation based read out on acid extracted histones.
HCT-15 cells are trypsinized, washed and suspended in DMEM culture medium supplemented with penicillin/streptomycin (100 U/mL), sodium pyruvate (1 mM), and 10% FBS
Compounds serial dilutions are prepared in 96-well V-bottom microplate from 10 mM stock solutions in DMSO. From these dilutions 0.5 µl are transferred to a fresh plate including pure DMSO as negative control. The dilutions are prepared such, that the final concentration in the assay is 1/400 of the concentration in the serial dilution. The final DMSO concentration in the assay is 0.25 %.
The cell suspension is seeded at densities of 2x10^5 cells per 170 µl into individual wells of a 96 well plate each containing 0.5 µl aliquots of compound serial dilutions and are kept for 1h in a cell incubator. To each well 30 µL of a mixture containing 0.5 mCi/mL of ^14C-acetate with full medium are added. Then, the wells are incubated for 3 hrs in the cell incubator.
Further steps of the procedure should be conducted on ice or instrumentations precooled to 4° C. Cells are sedimented in the 96-well V-bottom microplate by centrifugation (Eppendorf 5804 R) at 1200 rpm for 5 min. The supernatant is removed and the cells are washed twice with 200µL of PBS-NaB (5 mM sodium butyrate) buffer by iterative resuspension and centrifugation. Finally, the cells are resuspended in 50 µL of TEB (PBS-NaB + 0.5 % Triton X-100) and left on ice for 10 minutes. After centrifugation at 2300 rpm for 10 minutes at 4° C. the supernatant is removed, the remaining pellet is suspended in 50 µL of 0.2 M HCl and incubated over night at 4° C. After incubation the well plate is shaken for 2 minutes in a MTP plate shaker set to 1200 rpm and then centrifuged at 3700 rpm for 10 mins. The lysate is carefully aspirated (~43 µL) and transferred into a white MTP plate (Greiner bio-one 65509). 90 µL of Ultima Gold XR scintillation cocktail are added and the plates are sealed with a transparent cover tape before mixing vigorously using plate shaker set to 1200 rpm. Radioactivity from ^14C incorporation in the wells is measured as CPM count in a MicroBeta Trilux luminescence counter.

T1 sequence (Q9NR19 whole entry): as above

SMILES | IC50 (human rec ACSS2) | IC50 (ACSS2)
CCc1nc(CNC(=O)c2cc3c(nc2OC)nc(C(O)(c2ccccc2)c2ccccc2)n3CC)no1 [Compound 63, 1-ethyl-N-[(5-ethyl-1,2,4-oxadiazol-3-yl)methyl]-2-(hydroxydiphenylmethyl)-5-methoxy-1H-imidazo[4,5-b]pyridine-6-carboxamide] | 100 to 10000 nM | 10 to 100 nM
CCn1c(C(O)(c2ccccc2)c2ccccc2)nc2nc(OC)c(C(=O)Nc3cnn(CCOC)c3)cc21 [Compound 70, 1-ethyl-2-(hydroxydiphenylmethyl)-5-methoxy-N-[1-(2-methoxyethyl)-1H-pyrazol-4-yl]-1H-imidazo[4,5-b]pyridine-6-carboxamide] | 10 to 100 nM | 10 to 100 nM
CCn1ccc(NC(=O)c2cc3c(nc2OC)nc(C(O)(c2ccccc2)c2ccccc2)n3CC)n1 [Compound 77, 1-ethyl-N-(1-ethyl-1H-pyrazol-3-yl)-2-(hydroxydiphenylmethyl)-5-methoxy-1H-imidazo[4,5-b]pyridine-6-carboxamide] | 1 to 10 nM | 1 to 10 nM
CCn1cnc(NC(=O)c2cc3c(nc2Cl)nc(C(O)(c2ccccc2)c2ccccc2)n3CC)c1 [Compound 82, 5-chloro-1-ethyl-N-(1-ethyl-1H-imidazol-4-yl)-2-(hydroxydiphenylmethyl)-1H-imidazo[4,5-b]pyridine-6-carboxamide] | 1 to 10 nM | 0.01 to 1 nM
CCn1cc(NC(=O)c2cnc3nc(C(O)(c4ccccc4)c4ccccc4)n(CC)c3c2)cn1 [Compound 113, 1-ethyl-N-(1-ethyl-1H-pyrazol-4-yl)-2-(hydroxydiphenylmethyl)-1H-imidazo[4,5-b]pyridine-6-carboxamide] | 10 to 100 nM | 10 to 100 nM
CCn1cc(NC(=O)c2cnc3nc(C(O)(c4ccccc4)c4ccccc4)n(C)c3c2)cn1 [Compound 114, N-(1-ethyl-1H-pyrazol-4-yl)-2-(hydroxydiphenylmethyl)-1-methyl-1H-imidazo[4,5-b]pyridine-6-carboxamide] | 10 to 100 nM | 10 to 100 nM

Continued, values first:

IC50 (human rec ACSS2) | IC50 (ACSS2) | SMILES
10 to 100 nM | 10 to 100 nM | CCn1c(C(O)(c2ccccc2)c2ccccc2)nc2nc(Cl)c(C(=O)Nc3cnn(CCOC)c3)cc21 [Compound 67, 5-chloro-1-ethyl-2-(hydroxydiphenylmethyl)-N-[1-(2-methoxyethyl)-1H-pyrazol-4-yl]-1H-imidazo[4,5-b]pyridine-6-carboxamide]
1 to 10 nM | 0.01 to 1 nM | CCn1cnc(NC(=O)c2cc3c(nc2Cl)nc(C(O)(c2ccccc2)c2ccccc2)n3CC)n1 [Compound 99, 5-chloro-1-ethyl-N-(1-ethyl-1H-1,2,4-triazol-3-yl)-2-(hydroxydiphenylmethyl)-1H-imidazo[4,5-b]pyridine-6-carboxamide]
0.01 to 1 nM | 1 to 10 nM | CCn1cnc(NC(=O)c2cc3c(nc2Cl)nc(C(O)(c2ccccc2F)c2ccccc2F)n3CC)n1 [Compound 100, 2-[bis(2-fluorophenyl)(hydroxy)methyl]-5-chloro-1-ethyl-N-(1-ethyl-1H-1,2,4-triazol-3-yl)-1H-imidazo[4,5-b]pyridine-6-carboxamide]
1 to 10 nM | 0.01 to 1 nM | CCn1cc(NC(=O)c2cc3c(nc2Cl)nc(C(O)(c2ccccc2F)c2ccccc2F)n3CC)cn1 [Compound 101, 2-[bis(2-fluorophenyl)(hydroxy)methyl]-5-chloro-1-ethyl-N-(1-ethyl-1H-pyrazol-4-yl)-1H-imidazo[4,5-b]pyridine-6-carboxamide]
1 to 10 nM | 1 to 10 nM | CCn1cc(NC(=O)c2cc3c(nc2OC)nc(C(O)(c2ccccc2)c2ccccc2)n3CC)cn1 [Compound 105, 1-ethyl-N-(1-ethyl-1 H-pyrazol-4-yl)-2-(hydroxydiphenylmethyl)-5-methoxy-1 H-imidazo[4,5-b]pyridine-6-carboxamide]
1 to 10 nM | 1 to 10 nM | CCn1cnc(NC(=O)c2cc3c(nc2C)nc(C(O)(c2ccccc2F)c2ccccc2F)n3CC)n1 [Compound 106, 2-[bis(2-fluorophenyl)(hydroxy)methyl]-1-ethyl-N-(1-ethyl-1H-1,2,4-triazol-3-yl)-5-methyl-1H-imidazo[4,5-b]pyridine-6-carboxamide]
1 to 10 nM | 1 to 10 nM | CCn1cc(NC(=O)c2cc3c(nc2C)nc(C(O)(c2ccccc2)c2ccccc2)n3CC)cn1 [Compound 109, 1-ethyl-N-(1-ethyl-1H-pyrazol-4-yl)-2-(hydroxydiphenylmethyl)-5-methyl-1H-imidazo[4,5-b]pyridine-6-carboxamide]
1 to 10 nM | 1 to 10 nM | CCn1cnc(NC(=O)c2cnc3nc(C(O)(c4ccccc4F)c4ccccc4F)n(CC)c3c2)n1 [Compound 110, 2-[bis(2-fluorophenyl)(hydroxy)methyl]-1-ethyl-N-(1-ethyl-1H-1,2,4-triazol-3-yl)-1H-imidazo[4,5-b]pyridine-6-carboxamide]
10 to 100 nM | 10 to 100 nM | CCn1cc(NC(=O)c2cnc3nc(C(O)(c4ccccc4F)c4ccccc4F)n(CC)c3c2)cn1 [Compound 112, 2-[bis(2-fluorophenyl)(hydroxy)methyl]-1-ethyl-N-(1-ethyl-1H-pyrazol-4-yl)-1H-imidazo[4,5-b]pyridine-6-carboxamide]

From patent US20230271956A1, “AMIDE DERIVATIVES” (Merck Patent GmbH, priority 2020, published 2023)
